Results: PMC7796031, “Studies of Coumarin Derivatives for Constitutive Androstane Receptor (CAR) Activation” (Molecules, 2020)

Assays:
FXR = test system: FXR; set-up: method as in PMID 21649640; conditions: scoparone alone, up to 100 μM; cited from earlier work
bile salt export pump = test system: bile salt export pump; set-up: method as in PMID 21649640; conditions: scoparone 10 μM with chenodeoxycholic acid 10 μM; cited from earlier work
CAR protein = assay: Immunofluorescence staining for CAR translocation in Hep3B cells; type: cell-based, human; conditions: 10 μM, 2 h
Experimental: (§1) Figure 3 Image of immunofluorescence staining for CAR translocation in Hep3B cells after 6,7-diprenoxycoumarin (50) treatment (A) and scoparone treatment (C). Hep3B cells were treated with 50 (10 μM) for 2 h. The negative control group was pre-treated with 10 nM okadaic acid (OA). The blue and green fluorescence stands for signals of nuclei and CAR protein, respectively. The protein expression of nuclear CAR after 6,7-diprenoxycoumarin (50) treatment for 2 h (B).
Hep3B cells (4 × 10^5) were grown on coverslips for overnight then washed twice with 1× PBS and fixed with 4% paraformaldehyde in 1× PBS for 30 min at room temperature. Cells were then permeabilized with 1× PBS containing 0.1% (v/v) Triton X-100 for 10–15 min and blocked in 1× PBS containing 5% BSA for 1 h at room temperature. CAR antibody (1:200 dilutions) was added and reacted at room temperature for 2 h in 1× PBS containing 5% BSA. FITC-conjugated goat anti-rabbit IgG antibody was added for another 1 h at room temperature. Coverslips were mounted and images were acquired under a fluorescence microscope.

nuclear CAR = assay: Protein expression of nuclear CAR (nuclear extraction, western blot); type: cell-based, human; conditions: Hep3B, treatment for 2 h
Experimental: as §1
Cells were harvest by centrifugation after trypsin-EDTA treatment. The ice-cold CER I (10 μL/1 × 10^6 cells) was added to the cell pellet following the manufacturer’s instruction. The tube was vigorously vortexed on the highest setting for 15 s to fully suspend the cell pellet, incubated on ice for 10 min, then ice-cold CER II was added to the tube and vortexed for 5 s on the highest setting. After incubating in ice for 1 min, tube was vortexed for 5 s on the highest setting then subjected to centrifuge for 5 min at 16,000× g. The supernatant (cytoplasmic fraction) was […] to a clean pre-chilled tube and the nuclear fraction (pellet) was re-suspended in ice-cold NER. […]
(§2) Protein concentration of each sample was determined using a BCA Protein Assay Kit (Pirece®, Thermo Scientific). […] The emitted fluorescence from the membrane was caught on a LAS-4000 biomolecule imager (FUJI.).

EGFR = biological target: T1, EGFR (Homo sapiens, UniProt P00533); assay: EGF-induced phosphorylation of EGFR in Hep3B (western blot); type: cell-based; conditions: 10 μM, 15 min
T1 construct: 6,7-Diprenoxycoumarin (50) antagonized EGF-induced phosphorylation EGFR in Hep3B; endogenous in cells; host or cells: Hep3B
T1 sequence (P00533 25-1210): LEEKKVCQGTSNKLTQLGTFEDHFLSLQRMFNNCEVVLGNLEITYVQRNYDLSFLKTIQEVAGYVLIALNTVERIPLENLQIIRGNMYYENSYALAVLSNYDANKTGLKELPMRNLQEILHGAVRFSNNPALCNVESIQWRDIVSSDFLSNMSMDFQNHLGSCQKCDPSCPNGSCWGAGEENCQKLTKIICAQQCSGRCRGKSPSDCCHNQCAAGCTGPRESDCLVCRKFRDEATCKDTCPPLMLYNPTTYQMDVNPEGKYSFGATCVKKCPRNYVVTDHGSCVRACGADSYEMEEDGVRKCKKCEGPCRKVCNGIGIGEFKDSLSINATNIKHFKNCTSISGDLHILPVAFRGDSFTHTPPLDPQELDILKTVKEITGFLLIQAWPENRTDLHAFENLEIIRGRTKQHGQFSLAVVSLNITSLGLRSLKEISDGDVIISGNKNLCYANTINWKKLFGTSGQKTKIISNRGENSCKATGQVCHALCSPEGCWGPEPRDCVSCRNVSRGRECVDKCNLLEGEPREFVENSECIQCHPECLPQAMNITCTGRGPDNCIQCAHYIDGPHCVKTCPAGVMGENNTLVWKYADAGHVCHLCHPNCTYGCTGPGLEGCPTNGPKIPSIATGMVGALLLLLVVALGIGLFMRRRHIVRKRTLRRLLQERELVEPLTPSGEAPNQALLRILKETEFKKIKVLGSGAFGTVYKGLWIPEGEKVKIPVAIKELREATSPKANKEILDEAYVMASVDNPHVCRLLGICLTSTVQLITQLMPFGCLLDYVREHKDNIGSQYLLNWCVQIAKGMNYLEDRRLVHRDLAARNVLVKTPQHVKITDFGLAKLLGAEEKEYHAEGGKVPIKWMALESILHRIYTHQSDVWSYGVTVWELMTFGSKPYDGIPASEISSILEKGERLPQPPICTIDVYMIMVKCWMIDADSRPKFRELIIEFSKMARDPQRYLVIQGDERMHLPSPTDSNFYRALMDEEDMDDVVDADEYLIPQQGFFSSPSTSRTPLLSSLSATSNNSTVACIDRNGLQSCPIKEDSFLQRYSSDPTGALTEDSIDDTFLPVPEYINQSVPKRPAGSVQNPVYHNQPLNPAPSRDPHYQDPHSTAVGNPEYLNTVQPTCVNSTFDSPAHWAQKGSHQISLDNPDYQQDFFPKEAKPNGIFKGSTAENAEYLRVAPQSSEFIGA
Experimental: Figure 4 6,7-Diprenoxycoumarin (50) antagonized EGF-induced phosphorylation EGFR in Hep3B. The Hep3B cells (1 × 10^6) were treated without (Ctrl) or with EGF in the absent 50 or present (EGF + 50) of 10 μM 50 for 15 min and phosphorylation status of EGFR was measured.
1 × 10^6 cells were seeded in a 10 cm plate, incubated at 37 °C for overnight and treated with various concentrations of compounds for the indicated times. After incubation, the culture medium was removed and washed twice with 2 mL ice-cold 1× PBS. Three hundred μL of protein lysis buffer (150 mM NaCl, 50 mM Tris-HCl (pH 7.4), 1% SDS, 1% Triton X-100, 1 mM PMSF) was added into each plate, scraped with a rubber policeman, collected into a premarked microtube and the incubated in ice for 1 h, sonicated by Ultrasonic Cell Disruptor for three time at 5 s each. The cell lysated was cleared by centrifugation at 12,000× g for 15 min at 4 °C. Supernatants were transferred into a fresh marked microtube and stored at −20 °C for future use.
as §2, with “Scientific). Different percentages of SDS-PAGE gels were prepared according to the molecular size of proteins of interest.” for “Scientific).”

EGF-induced phosphorylation of EGFR (EGFR)	SMILES	FXR activation (FXR)	effect on chenodeoxycholic acid-increased expression of bile salt export pump (bile salt export pump)	translocation of CAR protein (CAR protein)	protein expression of nuclear CAR (nuclear CAR)
	COc1cc2ccc(=O)oc2cc1OC [Compound 39, scoparone]	no effect	potentiated		
reduce	CC(C)=CCOc1cc2ccc(=O)oc2cc1OCC=C(C)C [Compound 50, 6,7-diprenoxycoumarin]			confirmed	increased
